Test results published in US20190269596A1, “COSMETIC USE AND METHOD FOR IMPROVING PHYSIOLOGICAL FUNCTIONS OF THE SKIN BY INCREASING THE EXPRESSION OF UBIAD1” (ISP Investments LLC, priority 2016, published 2019).
Where no end group is shown, it is not given here.

Columns and labels:
Format in all cases: cell-based, human
keratinocytes [1] = test: Lipid peroxidation (C11-BODIPY) in keratinocytes exposed to cumene hydroperoxide; conditions: keratinocytes exposed 1 hour to 200 μM cumene hydroperoxide, peptide-treated
Protocol: (C) Lipid peroxidation in keratinocyte exposed 1 hour to 200 μM cumene hydroperoxide (reduced BODIPY in red; oxidized BODIPY in green) (×20 objective lens, scale bar=31 μm).
(D) Lipid peroxidation quantification graph with One-Way Analysis of Variance, displaying confidence interval means diamonds (green). The line across each diamond represents the group mean. The vertical span of each diamond represents the 95% confidence interval for each group. Grand sample mean is represented by a horizontal black line.
(§1) Primary antibodies used were anti-Ubiad1 (sc-377013, Santa Cruz Biotechnology, Heidelberg, Gennany), anti-Giantin (ab24586, Abcamn, Cambridge, UK), anti-3-Nitrotyrosine (ab61392, Abcam). Alexa Fluor® coupled secondary antibodies were used (Molecular Probes, Eugene, Oreg., USA). Alexa Fluor® 594 Phalloidin probe were used for F-actin detection (A12381, molecular Probes). CellROX Green probe was used for monitoring intracellular ROS (C10444, molecular Probes). C11-BODIPY (581/591) was used for monitoring lipid peroxidation (C10445, Molecular Probes). […]
(§2) All experiments have been repeated, the quantification of the fluorescence was performed by measuring the fluorescent intensity of the staining, which was normalized by cell area. Lipid peroxidation in cells was quantified according to manufacturer guideline with the ratios of the signal from the 590 to 510 channels. […]

keratinocytes [2] = test: Cellular ROS measurement with CellROX green in keratinocytes exposed to cumene hydroperoxide; conditions: keratinocytes exposed 1 hour to 200 μM cumene hydroperoxide, peptide-treated
Protocol: (A) Cellular ROS measurement in keratinocyte exposed 1 hour to 200 μM cumene hydroperoxide using the CellIROX green assay (×20 objective lens, scale bar=31 μm).
(B) CellROX quantification graph with One-Way Analysis of Variance, displaying confidence interval means diamonds (green). The line across each diamond represents the group mean. The vertical span of each diamond represents the 95% confidence interval for each group. Grand sample mean is represented by a horizontal black line.
as §1, §2

Ubiad1 [3] = test: Immunoblotting of Ubiad1 in keratinocytes; conditions: skin keratinocytes, 1 μM (1%) Ubiad1 inducer peptide
Protocol: (§3) Normal human epithelial keratinocytes were isolated from skin obtained from plastic surgery of healthy females who had given written informed consent. Keratinocytes were cultured in keratinocyte serum free medium, with provided human recombinant epidermal growth factor and bovine pituitary extract (Gibco, Auckland, NZ), and 0.1 mg/ml Primocin™ (Invivogen, San Diego, Calif., USA).
Keratinocytes were lysed in RIPA buffer (Thermo Scientific, Rockford, Ill., USA), containing protease inhibitor cocktail and EDTA (Thermo Scientific). The protein concentration was determined using the BCA Protein Assay Kit (Thermo Scientific) and equal amounts of total protein were loaded on a 4 to 12% NuPAGE Bis-Tris Gel (Invitrogen) and transferred onto a nitrocellulose membranes using the iBlot dry blotting system (Invitrogen). Non specific binding sites were blocked, and membranes were then labeled with appropriate antibodies and developed using the SuperSignal West Femto Maximum Sensitivity Substrate kit (Thermo Scientific).

Ubiad1 [4] = test: qPCR of Ubiad1 mRNA expression in keratinocytes; conditions: skin keratinocytes, 1 μM (1%) Ubiad1 inducer peptide
Protocol: as §3
Total RNA was extracted using mirVana miRNA isolation kit according to the manufacturer's instructions (Ambion, Austin, Tex., USA). Total RNA was reverse transcribed with the high capacity cDNA reverse transcription kit (Applied Biosystems, Branchburg, N.J., USA). Real-time polymerase chain reaction was performed according to the Taqman method, using the TaqMan Universal PCR Master Mix (Applied Biosystems) with the StepOnePlus Real-time PCR System (Applied Biosystems). Relative expression levels of each target gene were calculated according to the delta-delta-CT method.

keratinocytes [5] = test: Transmission electron microscopy of peptide-treated keratinocytes; conditions: cultured keratinocytes, peptide 1 tLM, 48 hours
Protocol: as §3
Cultured keratinocytes, treated with the peptide at 1 tLM concentration for 48 hours were fixed in Karnovsky's solution (Emsdiasum, Hatfield, Pa., USA) for 1 h at room temperature, and left for 12 h at 4° C. Cells were then carefully scrapped off the petridish, pelleted with a brief centrifugation, and washed with 0.1 M sodium cacodylate buffer. Pellets were routinely osmicated, dehydrated in a graded series of ethanol, and infiltrated with; and embedded in, a low viscocity epon-epoxy resin. Ultrathin sections of silver-gray interference color were cut and double-stained with uranyl acetate and lead citrate and then examined in a Zeiss 10 transmission electron microscope. Microphotographs were taken with a Gatan digital camera (Gatan, Pleasanton, Calif., USA).

Ala-Val-Leu-Ala-Gly-NH2 (AVLAG-NH2) [Ubiad1 inducer peptide, artificially synthesized Ubiad1 inducer peptide]
resistance to lipid peroxidation (keratinocytes [1]): more resistant
resistance to ROS accumulation (keratinocytes [2]): more resistant to ROS accumulation
increase of expression of Ubiad1 measured by immunoblotting (Ubiad1 [3]): +53%
increase of expression of Ubiad1 measured by qPCR (Ubiad1 [4]): +102%
cell morphology: mitochondrial and Golgi content of the cells (keratinocytes [5]): large scale increase in the mitochondrial and Golgi content of the cells
